Experimental data from patent US20260062387A1, “SALT-INDUCIBLE KINASE INHIBITOR COMPOUND AND PHARMACEUTICAL COMPOSITION INCLUDING THE SAME” (MITSUBISHI TANABE PHARMA CORPORATION, priority 2023, published 2026).

Assays:
Assay type in all cases: biochemical
GST-tagged SIK1 = GST-tagged SIK1 (Homo sapiens (Human), UniProt P57059); assay: SIK1 inhibition test (ADP-Glo Max Assay); details: enzyme 20 nM, AMARA Peptide 200 μM, ATP 1 mM, 2 hours room temperature
Description: (§1) The compounds described in Examples above were used in the SIK1, SIK2, and SIK3 inhibition test.
(§2) The inhibitory activity of the compound for SIK1, SIK2, and SIK3 enzymes was assayed by measuring the amount of ADP, an enzyme reaction product, with ADP-Glo™ Max Assay (Promega). Enzymes, specifically, GST-tagged SIK1 (Carna Biosciences, Inc.), GST-tagged SIK2 (Carna Biosciences, Inc.), and GST-tagged SIK3 (SignalChem) were prepared in a reaction buffer (15 mM tris-hydrochloric acid buffer (pH 7.5), 0.001% Triton X-100, 0.01% BSA) so that the final concentration would be 20 nM, 3 nM, and 100 nM. Enzyme solutions were thus formed. In a reaction buffer, AMARA Peptide (SignalChem) as a substrate with a final concentration of 200 μM (SIK1, SIK2) or 100 μM (SIK3), ATP (Promega) with a final concentration of 1 mM, and magnesium chloride with a final concentration of 5 mM were prepared. Substrate solutions were thus formed. The enzyme solution, the substrate solution, and a DMSO solution of a concentration of the test compound were mixed together and reacted at room temperature for 2 hours. After the reaction, ADP-Glo™ Reagent (Promega) was added, and the reaction was performed at room temperature for 30 minutes. Subsequently, ADP-Glo™ Max Detection Reagent (Promega) was added, and the reaction was performed at room temperature for 30 minutes. The emission by the luciferase reaction was measured with PHERAstar FSX (BMG LABTECH).
(§3) The inhibitory ratio (%) was calculated by: % Inhibition={1−(intensity of sample−intensity of blank (no enzyme solution added))/(intensity of control (DMSO alone)−intensity of blank)}×100. The inhibitory concentration IC50 was calculated based on 16 data values obtained in the concentration response test.

GST-tagged SIK2 = GST-tagged SIK2 (Homo sapiens (Human), UniProt Q9H0K1); assay: SIK2 inhibition test (ADP-Glo Max Assay); details: enzyme 3 nM, AMARA Peptide 200 μM, ATP 1 mM, 2 hours room temperature
Description: as §1, §2, §3

GST-tagged SIK3 = GST-tagged SIK3 (Homo sapiens (Human), UniProt Q9Y2K2); assay: SIK3 inhibition test (ADP-Glo Max Assay); details: enzyme 100 nM, AMARA Peptide 100 μM, ATP 1 mM, 2 hours room temperature
Description: as §1, §2, §3

Chain of GST-tagged SIK2 (Q9H0K1 whole entry): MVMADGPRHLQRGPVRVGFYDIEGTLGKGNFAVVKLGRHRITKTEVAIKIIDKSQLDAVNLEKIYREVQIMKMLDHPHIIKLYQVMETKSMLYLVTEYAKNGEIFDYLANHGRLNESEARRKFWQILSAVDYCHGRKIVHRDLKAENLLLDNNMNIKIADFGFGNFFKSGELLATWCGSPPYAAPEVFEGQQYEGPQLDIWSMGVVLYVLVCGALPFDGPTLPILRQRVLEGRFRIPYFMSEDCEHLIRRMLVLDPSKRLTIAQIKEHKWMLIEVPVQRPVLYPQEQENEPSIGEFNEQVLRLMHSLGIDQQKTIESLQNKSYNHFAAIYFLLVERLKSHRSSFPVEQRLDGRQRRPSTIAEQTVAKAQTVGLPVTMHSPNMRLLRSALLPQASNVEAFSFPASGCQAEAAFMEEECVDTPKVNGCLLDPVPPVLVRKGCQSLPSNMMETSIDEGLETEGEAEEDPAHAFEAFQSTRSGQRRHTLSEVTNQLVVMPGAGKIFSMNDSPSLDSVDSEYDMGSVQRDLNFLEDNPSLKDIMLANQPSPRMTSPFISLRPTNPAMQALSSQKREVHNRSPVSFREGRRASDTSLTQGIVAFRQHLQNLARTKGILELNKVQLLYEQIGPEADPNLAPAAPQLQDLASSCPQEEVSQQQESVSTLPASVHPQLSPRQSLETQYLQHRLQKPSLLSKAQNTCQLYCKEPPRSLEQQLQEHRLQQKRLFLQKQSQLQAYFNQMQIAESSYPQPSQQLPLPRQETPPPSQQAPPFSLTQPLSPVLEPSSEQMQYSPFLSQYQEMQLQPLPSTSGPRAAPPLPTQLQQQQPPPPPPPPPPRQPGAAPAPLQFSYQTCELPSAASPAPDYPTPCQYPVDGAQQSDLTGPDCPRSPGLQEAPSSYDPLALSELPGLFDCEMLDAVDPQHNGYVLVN
Chain of GST-tagged SIK1 (P57059 whole entry): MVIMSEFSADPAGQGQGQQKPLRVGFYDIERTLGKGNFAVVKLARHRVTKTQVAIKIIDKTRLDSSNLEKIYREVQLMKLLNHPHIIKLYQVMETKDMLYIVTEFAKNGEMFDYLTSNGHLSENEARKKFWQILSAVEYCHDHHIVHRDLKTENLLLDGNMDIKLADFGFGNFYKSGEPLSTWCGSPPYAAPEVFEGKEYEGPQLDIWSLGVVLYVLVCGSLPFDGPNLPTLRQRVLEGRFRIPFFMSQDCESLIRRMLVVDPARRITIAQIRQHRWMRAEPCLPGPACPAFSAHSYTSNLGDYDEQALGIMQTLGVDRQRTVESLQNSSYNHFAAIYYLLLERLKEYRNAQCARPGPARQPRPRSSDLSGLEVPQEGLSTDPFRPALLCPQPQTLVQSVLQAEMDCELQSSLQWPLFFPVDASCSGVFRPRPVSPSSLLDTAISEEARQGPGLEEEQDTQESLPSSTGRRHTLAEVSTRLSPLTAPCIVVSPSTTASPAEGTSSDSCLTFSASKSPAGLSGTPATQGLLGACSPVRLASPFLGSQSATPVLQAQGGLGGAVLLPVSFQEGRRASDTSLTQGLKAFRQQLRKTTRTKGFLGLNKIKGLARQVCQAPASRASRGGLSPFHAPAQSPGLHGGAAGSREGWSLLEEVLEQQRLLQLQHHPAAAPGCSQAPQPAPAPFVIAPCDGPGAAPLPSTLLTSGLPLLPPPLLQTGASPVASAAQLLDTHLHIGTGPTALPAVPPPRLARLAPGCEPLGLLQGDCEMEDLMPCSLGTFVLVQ
Chain of GST-tagged SIK3 (Q9Y2K2 whole entry): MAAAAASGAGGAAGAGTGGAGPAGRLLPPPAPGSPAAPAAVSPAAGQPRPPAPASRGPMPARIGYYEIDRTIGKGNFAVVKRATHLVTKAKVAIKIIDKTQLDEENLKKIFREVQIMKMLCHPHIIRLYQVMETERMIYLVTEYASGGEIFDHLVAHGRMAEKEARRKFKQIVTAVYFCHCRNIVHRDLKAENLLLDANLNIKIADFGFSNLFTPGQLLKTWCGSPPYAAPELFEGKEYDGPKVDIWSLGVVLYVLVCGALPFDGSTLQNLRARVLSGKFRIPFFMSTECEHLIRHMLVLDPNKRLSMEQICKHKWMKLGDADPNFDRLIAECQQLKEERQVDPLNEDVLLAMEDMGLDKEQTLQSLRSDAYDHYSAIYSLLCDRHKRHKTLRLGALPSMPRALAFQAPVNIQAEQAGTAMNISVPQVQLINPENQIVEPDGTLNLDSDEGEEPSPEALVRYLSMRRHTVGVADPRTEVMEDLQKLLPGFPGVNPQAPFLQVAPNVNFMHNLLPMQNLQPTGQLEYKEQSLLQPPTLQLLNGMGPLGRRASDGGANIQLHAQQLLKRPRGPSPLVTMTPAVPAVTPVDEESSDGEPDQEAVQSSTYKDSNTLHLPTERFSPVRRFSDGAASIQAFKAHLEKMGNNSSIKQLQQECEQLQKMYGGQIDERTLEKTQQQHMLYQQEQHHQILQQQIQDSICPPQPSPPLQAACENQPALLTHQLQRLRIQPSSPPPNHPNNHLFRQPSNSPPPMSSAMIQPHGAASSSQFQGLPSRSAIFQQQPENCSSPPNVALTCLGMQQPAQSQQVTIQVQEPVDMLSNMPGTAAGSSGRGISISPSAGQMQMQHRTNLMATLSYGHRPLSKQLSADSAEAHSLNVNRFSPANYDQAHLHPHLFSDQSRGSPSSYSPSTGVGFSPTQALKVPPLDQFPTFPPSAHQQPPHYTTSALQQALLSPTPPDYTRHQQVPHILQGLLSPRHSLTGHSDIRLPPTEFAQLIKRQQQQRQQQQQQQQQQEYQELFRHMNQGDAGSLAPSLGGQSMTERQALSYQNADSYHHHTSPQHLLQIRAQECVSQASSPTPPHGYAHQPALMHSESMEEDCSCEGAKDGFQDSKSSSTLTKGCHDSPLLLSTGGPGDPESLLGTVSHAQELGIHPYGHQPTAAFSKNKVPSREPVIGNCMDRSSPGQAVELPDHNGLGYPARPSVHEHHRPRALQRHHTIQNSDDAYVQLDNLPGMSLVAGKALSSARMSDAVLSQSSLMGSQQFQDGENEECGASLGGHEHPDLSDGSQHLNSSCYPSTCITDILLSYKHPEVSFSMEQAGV

Row | Compound | IC50 (GST-tagged SIK1) [nM] | IC50 (GST-tagged SIK2) [nM] | IC50 (GST-tagged SIK3) [nM]
1 | COc1cc(-c2cnn3cc(OCCN4CCOCC4)ccc23)cc2c1C(=O)N(CC(F)(F)F)CC2 [Comparative Example 6, 8-methoxy-6-[6-(2-morpholinoethoxy)pyrazolo[1,5-a]pyridin-3-yl]-2-(2,2,2-trifluoroethyl)-3,4-dihydroisoquinolin-1-one, reference compound] | 5220 | 102 | 42
2 | COc1cc(-c2c3ccc(OCCN4CCOCC4)cc3nn2C)cc(OC(F)F)c1C(=O)NC1CC1 [Comparative Example 7, N-cyclopropyl-2-(difluoromethoxy)-6-methoxy-4-(2-methyl-6-(2-morpholinoethoxy)-2H-indazol-3-yl)benzamide, reference compound] | 7600 | 369 | 198
3 | COc1cc(-c2c3ccc(N4CCN(C)CC4)cc3nn2C)cc2c1C(=O)N(CC(F)(F)F)CC2 [Comparative Example 8, 8-methoxy-6-(2-methyl-6-(4-methylpiperazin-1-yl)-2H-indazol-3-yl)-2-(2,2,2-trifluoroethyl)-3,4-dihydroisoquinolin-1(2H)-one, reference compound] | > 10000 | 683 | 887
4 | COc1cc(-c2c3c(C#N)cc(-c4cnn(C)c4)cc3nn2C)cc(OC(F)F)c1C(=O)N[C@@H]1C[C@@H]1F [Example 1, 4-[4-cyano-2-methyl-6-(1-methylpyrazol-4-yl)indazol-3-yl]-2-(difluoromethoxy)-N-[(1R,2S)-2-fluorocyclopropyl]-6-methoxybenzamide] | 5.9 | 2.1 | 2.2
5 | COc1cc(-c2c3c(OC)cc(-c4cnn(C)c4)cc3nn2C)cc(OC(F)F)c1C(=O)N[C@@H]1C[C@@H]1F [Example 2, 2-(difluoromethoxy)-N-[(1R,2S)-2-fluorocyclopropyl]-6-methoxy-4-[4-methoxy-2-methyl-6-(1-methylpyrazol-4-yl)indazol-3-yl]benzamide] | 19.8 | 8.3 | 7.8
6 | COc1cc(-c2c3c(C(F)F)cc(-c4cnn(C)c4)cc3nn2C)cc(OC(F)F)c1C(=O)N[C@@H]1C[C@@H]1F [Example 3, 2-(difluoromethoxy)-4-[4-(difluoromethyl)-2-methyl-6-(1-methylpyrazol-4-yl)indazol-3-yl]-N-[(1R,2S)-2-fluorocyclopropyl]-6-methoxybenzamide] | 7.6 | 4.5 | 2.3
7 | COc1cc(-c2c3c(OCCCO)cc(-c4cnn(C)c4)cc3nn2C)cc(OC(F)F)c1C(=O)N[C@@H]1C[C@@H]1F [Example 4, 2-(difluoromethoxy)-N-[(1R,2S)-2-fluorocyclopropyl]-4-[4-(3-hydroxypropoxy)-2-methyl-6-(1-methylpyrazol-4-yl)indazol-3-yl]-6-methoxybenzamide] | 5 | 8.9 | 11.5
8 | COc1cc(-c2c3c(OC(F)F)cc(-c4cnn(C)c4)cc3nn2C)cc(OC(F)F)c1C(=O)N[C@@H]1C[C@@H]1F [Example 5, 2-(difluoromethoxy)-4-[4-(difluoromethoxy)-2-methyl-6-(1-methylpyrazol-4-yl)indazol-3-yl]-N-[(1R,2S)-2-fluorocyclopropyl]-6-methoxybenzamide] | 10.8 | 5 | 7.6
9 | COc1cc(-c2c3c(OCc4ccccc4)cc(-c4cnn(C)c4)cc3nn2C)cc(OC(F)F)c1C(=O)N[C@@H]1C[C@@H]1F [Example 6, 2-(difluoromethoxy)-N-[(1R,2S)-2-fluorocyclopropyl]-6-methoxy-4-[2-methyl-6-(1-methylpyrazol-4-yl)-4-phenylmethoxyindazol-3-yl]benzamide] | 2.8 | 7.1 | 8.4
10 | COc1cc(-c2c3c(C#N)cc(-c4cnn(C)c4)cc3nn2C)cc(OC(F)F)c1C(=O)N1CC(O)(C(F)(F)F)C1 [Example 7, 3-[3-(difluoromethoxy)-4-[3-hydroxy-3-(trifluoromethyl)azetidin-1-carbonyl]-5-methoxyphenyl]-2-methyl-6-(1-methylpyrazol-4-yl)indazole-4-carbonitrile] | 17.1 | 16.2 | 12.4
11 | COc1cc(-c2c3c(C#N)cc(-c4cnn(C)c4)cc3nn2C)cc(OC(F)F)c1C(=O)N1CC(C)(C(F)F)C1 [Example 8, 3-[3-(difluoromethoxy)-4-[3-(difluoromethyl)-3-methylazetidin-1-carbonyl]-5-methoxyphenyl]-2-methyl-6-(1-methylpyrazol-4-yl)indazole-4-carbonitrile] | 7.2 | 9.7 | 5.8
12 | COc1cc(-c2c3c(C#N)cc(-c4cnn(C)c4)cc3nn2C)cc(OC(F)F)c1C(=O)N1CC(OC(F)F)C1 [Example 9, 3-[3-(difluoromethoxy)-4-[3-(difluoromethoxy)azetidine-1-carbonyl]-5-methoxyphenyl]-2-methyl-6-(1-methylpyrazol-4-yl)indazole-4-carbonitrile] | 16.2 | 12.2 | 10
13 | COc1cc(-c2c3c(C#N)cc(-c4cnn(C)c4)cc3nn2C)cc(OC(F)F)c1C(=O)NCC1CC1(F)F (stereo not drawn) [Example 10] | 13.8 | 7.3 | 6.3
14 | COc1cc(-c2c3c(C(F)F)cc(-c4cnn(C)c4)cc3nn2C)cc(OC(F)F)c1C(=O)N[C@@H]1CC1(F)F [Example 11, N-[(1R)-2,2-difluorocyclopropyl]-2-(difluoromethoxy)-4-[4-(difluoromethyl)-2-methyl-6-(1-methylpyrazol-4-yl)indazol-3-yl]-6-methoxybenzamide] | 9.8 | 12.3 | 2.4
15 | COc1cc(-c2c3c(C#N)cc(-c4cnn(C)c4)cc3nn2C)cc(OC(F)F)c1C(=O)NCC1(F)CC1 [Example 12, 4-[4-cyano-2-methyl-6-(1-methylpyrazol-4-yl)indazol-3-yl]-2-(difluoromethoxy)-N-[(1-fluorocyclopropyl)methyl]-6-methoxybenzamide] | 12.4 | 7 | 7
16 | COc1cc(-c2c3c(OC)cc(-c4cnn(C)c4)cc3nn2C)cc(OC(F)F)c1C(=O)N1CC(O)(C(F)(F)F)C1 [Example 13, [2-(difluoromethoxy)-6-methoxy-4-[4-methoxy-2-methyl-6-(1-methylpyrazol-4-yl)indazol-3-yl]phenyl]-[3-hydroxy-3-(trifluoromethyl)azetidin-1-yl]methanone] | 4.6 | 7.2 | 3.8
17 | COc1cc(-c2c3c(OC(F)F)cc(-c4cnn(C)c4)cc3nn2C)cc(OC(F)F)c1C(=O)N1CC(O)(C(F)(F)F)C1 [Example 14, [2-(difluoromethoxy)-4-[4-(difluoromethoxy)-2-methyl-6-(1-methylpyrazol-4-yl)indazol-3-yl]-6-methoxyphenyl]-[3-hydroxy-3-(trifluoromethyl)azetidin-1-yl]methanone] | 3.6 | 8.8 | 2.4
18 | CCn1cc(-c2cc(C#N)c3c(-c4cc(OC)c(C(=O)N5CC(O)(C(F)(F)F)C5)c(OC(F)F)c4)n(C)nc3c2)cn1 [Example 15, 3-[3-(difluoromethoxy)-4-[3-hydroxy-3-(trifluoromethyl)azetidin-1-carbonyl]-5-methoxyphenyl]-6-(1-ethylpyrazol-4-yl)-2-methylindazole-4-carbonitrile] | 9.2 | 10.3 | 1.4
19 | COc1cc(-c2c3c(C#N)cc(-c4cnn(CC(C)(C)O)c4)cc3nn2C)cc(OC(F)F)c1C(=O)N1CC(O)(C(F)(F)F)C1 [Example 16] | 8.7 | 13.8 | 3.2
20 | COc1cc(-c2c3c(C#N)cc(-c4cnn(CC(=O)N(C)C)c4)cc3nn2C)cc(OC(F)F)c1C(=O)N1CC(O)(C(F)(F)F)C1 [Example 17, 2-[4-[4-cyano-3-[3-(difluoromethoxy)-4-[3-hydroxy-3-(trifluoromethyl)azetidin-1-carbonyl]-5-methoxyphenyl]-2-methylindazol-6-yl]pyrazol-1-yl]-N,N-dimethylacetamide] | 5.4 | 8.5 | 7.1
21 | CCn1cc(-c2cc(C#N)c3c(-c4cc(OC)c(C(=O)N[C@@H]5C[C@@H]5F)c(OC(F)F)c4)n(C)nc3c2)cn1 [Example 18, 4-[4-cyano-6-(1-ethylpyrazol-4-yl)-2-methylindazol-3-yl]-2-(difluoromethoxy)-N-[(1R,2S)-2-fluorocyclopropyl]-6-methoxybenzamide] | 1.4 | 3.1 | 7
